Data from publication PMC10528385 (Antiviral research, 2023).

Columns and labels:
[1] = target: NA of A/Texas/12/2007 A(H3N2), NA-E119V (Influenza A virus, UniProt D1FVK3, I119V); assay: biochemical
[2] = target: NA of A/Bethesda/956/2006 A(H3N2), NA-R292K (Influenza A virus, UniProt F1KL32, R292K); type: biochemical; conditions: read-out: Susceptibility to NAIs, mean IC50 ± SD

**Q.** With `CC(=O)N[C@H]1[C@H]([C@H](O)[C@H](O)CO)OC(C(=O)O)=C[C@@H]1N=C(N)N` [Zanamivir, zanamivir] as the compound, how does the IC50 [1] read?
**A.** Its IC50 is 1.3 nM.

**Q.** What about the IC50 [2] of the same compound?
**A.** The IC50 was 10.6 ± 1.4 nM.
